Test results: ChEMBL document CHEMBL1201862, “PubChem BioAssay data set” (2004)
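Briefly, cells in 96-well plates were exposed to five compound concentrations for 48 h, and endpoints were estimated by linear interpolation. Abbreviation: GI50, concentration required for 50% inhibition of growth.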 Calls of active or inactive are those of the source. Cut-off read from the data, not from the text of the source: active = GI50 up to about 1.1 µM and inactive = higher.

Experiments:
Assay in all cases: inhibition of tumour cell growth, NCI panel, 48 h
[1] = system: LOX IMVI
[2] = system: Malme-3M
[3] = system: COLO 205
[4] = system: ACHN
[5] = system: KM12
[6] = system: OVCAR-8
[7] = system: UO-31
[8] = system: DU-145
[9] = system: HCT-116
[10] = system: K562
[11] = system: SF-539
[12] = system: SR
[13] = system: SF-295
[14] = system: MDA-MB-435
[15] = system: NCI-H23
[16] = system: HT-29
[17] = system: UACC-257
[18] = system: NCI-H460
[19] = system: SK-OV-3
[20] = system: NCI-H226

SMILES | GI50 [1] | GI50 [2] | GI50 [3] | GI50 [4] | GI50 [5] | GI50 [6] | GI50 [7] | GI50 [8] | GI50 [9] | GI50 [10] | GI50 [11] | GI50 [12] | GI50 [13] | GI50 [14] | GI50 [15] | GI50 [16] | GI50 [17] | GI50 [18] | GI50 [19] | GI50 [20]
Cc1cc(S(=O)(=O)Nc2nnc3ccccn23)c(S)cc1Cl | > 100 µM (inactive) | > 100 µM (inactive) | > 100 µM (inactive) | > 100 µM (inactive) | 38.1 µM (inactive) | > 100 µM (inactive) | > 100 µM (inactive) | > 100 µM (inactive) | > 100 µM (inactive) | > 100 µM (inactive) | > 100 µM (inactive) | > 100 µM (inactive) | 25.9 µM (inactive) | > 100 µM (inactive) | > 100 µM (inactive) | > 100 µM (inactive) | > 100 µM (inactive) | 40.1 µM (inactive) |  | 
COc1ccc2c(c1)CC[C@@H]1[C@@H]2CC[C@]2(C)C(=O)/C(=C/c3cc(OC)c(OC)c(OC)c3)C[C@@H]12 |  | 17.8 µM (inactive) | 87.1 µM (inactive) | 21.7 µM (inactive) | 29 µM (inactive) |  | 47.2 µM (inactive) | 42.4 µM (inactive) | 31.6 µM (inactive) |  | 28.2 µM (inactive) | 15.2 µM (inactive) | 29.4 µM (inactive) | > 100 µM (inactive) | 25 µM (inactive) |  |  | 31.8 µM (inactive) | 44 µM (inactive) | 
COc1ccc2c(c1)c1c(C)c3cnccc3c(C)c1n2CCCN | 0.0556 µM (active) | 0.681 µM (active) | 0.177 µM (active) | 0.124 µM (active) |  | 0.178 µM (active) | 0.524 µM (active) | 0.0603 µM (active) | 0.0556 µM (active) |  | 0.405 µM (active) | < 0.01 µM (active) | 0.257 µM (active) | 0.0502 µM (active) | 0.216 µM (active) | 0.117 µM (active) | 0.518 µM (active) | 0.065 µM (active) | 0.415 µM (active) | 
CCC(c1c[nH]c2ccc(Br)cc12)c1c[nH]c2ccc(Br)cc12 | 2.44 µM (inactive) | 10.6 µM (inactive) | 2.42 µM (inactive) | 3.65 µM (inactive) | 1.97 µM (inactive) | 4.53 µM (inactive) | 6.97 µM (inactive) | 2.88 µM (inactive) | 3.94 µM (inactive) | 2.54 µM (inactive) | 12.5 µM (inactive) |  | 5.92 µM (inactive) | 3.13 µM (inactive) | 2.96 µM (inactive) | 3.08 µM (inactive) | 11.6 µM (inactive) | 2.63 µM (inactive) | 11.9 µM (inactive) | 11.8 µM (inactive)
c1cc(CSP234N5CCN2CCN3CCN4CC5)ccc1CSP123N4CCN1CCN2CCN3CC4 | 49.1 µM (inactive) |  | > 100 µM (inactive) | > 100 µM (inactive) | > 100 µM (inactive) | > 100 µM (inactive) | 99.8 µM (inactive) | > 100 µM (inactive) | 72.8 µM (inactive) | < 0.01 µM (active) | 64.6 µM (inactive) |  | > 100 µM (inactive) | 97.3 µM (inactive) | > 100 µM (inactive) | 53.2 µM (inactive) | > 100 µM (inactive) | > 100 µM (inactive) |  | 
CCOC(=O)/C(C(=O)NC(C)C)=C(/N)N1CCOCC1 | > 100 µM (inactive) | > 100 µM (inactive) | > 100 µM (inactive) | > 100 µM (inactive) | > 100 µM (inactive) | > 100 µM (inactive) |  | > 100 µM (inactive) | > 100 µM (inactive) | > 100 µM (inactive) | > 100 µM (inactive) |  | > 100 µM (inactive) | > 100 µM (inactive) | > 100 µM (inactive) | > 100 µM (inactive) | > 100 µM (inactive) | > 100 µM (inactive) | > 100 µM (inactive) | > 100 µM (inactive)
CCOC(=O)C1(C/C=C\CBr)CCCCCCC1=O (stereo not given) | > 100 µM (inactive) | > 100 µM (inactive) | > 100 µM (inactive) | > 100 µM (inactive) | > 100 µM (inactive) | > 100 µM (inactive) | > 100 µM (inactive) | > 100 µM (inactive) | > 100 µM (inactive) |  | > 100 µM (inactive) |  | > 100 µM (inactive) | > 100 µM (inactive) | > 100 µM (inactive) | > 100 µM (inactive) | > 100 µM (inactive) |  | > 100 µM (inactive) | > 100 µM (inactive)
O=C(NN=C1CCCCC1)NN=C1CCCCC1 | > 100 µM (inactive) | > 100 µM (inactive) | > 100 µM (inactive) |  | > 100 µM (inactive) | > 100 µM (inactive) | > 100 µM (inactive) | > 100 µM (inactive) | > 100 µM (inactive) | > 100 µM (inactive) |  |  | > 100 µM (inactive) | > 100 µM (inactive) | > 100 µM (inactive) | > 100 µM (inactive) | > 100 µM (inactive) | > 100 µM (inactive) | > 100 µM (inactive) | 
